Measured values published in the Kinase Knowledgebase extract (Sharma et al. 2016).
“And” between values parts separate entries of the source, which are not always exact repeats. Equal values may be shown once.

Key:
EGFR (human) [1] = molecular target: EGFR (human) (UniProt P00533); conditions: a431
EGFR (human) [2] = molecular target: EGFR (human) (UniProt P00533); conditions: igrov-1
EGFR (human) [3] = molecular target: EGFR (human) (UniProt P00533); conditions: skov-3
EGFR = EGFR (UniProt P00533)
Chain of EGFR (P00533 whole entry, looked up): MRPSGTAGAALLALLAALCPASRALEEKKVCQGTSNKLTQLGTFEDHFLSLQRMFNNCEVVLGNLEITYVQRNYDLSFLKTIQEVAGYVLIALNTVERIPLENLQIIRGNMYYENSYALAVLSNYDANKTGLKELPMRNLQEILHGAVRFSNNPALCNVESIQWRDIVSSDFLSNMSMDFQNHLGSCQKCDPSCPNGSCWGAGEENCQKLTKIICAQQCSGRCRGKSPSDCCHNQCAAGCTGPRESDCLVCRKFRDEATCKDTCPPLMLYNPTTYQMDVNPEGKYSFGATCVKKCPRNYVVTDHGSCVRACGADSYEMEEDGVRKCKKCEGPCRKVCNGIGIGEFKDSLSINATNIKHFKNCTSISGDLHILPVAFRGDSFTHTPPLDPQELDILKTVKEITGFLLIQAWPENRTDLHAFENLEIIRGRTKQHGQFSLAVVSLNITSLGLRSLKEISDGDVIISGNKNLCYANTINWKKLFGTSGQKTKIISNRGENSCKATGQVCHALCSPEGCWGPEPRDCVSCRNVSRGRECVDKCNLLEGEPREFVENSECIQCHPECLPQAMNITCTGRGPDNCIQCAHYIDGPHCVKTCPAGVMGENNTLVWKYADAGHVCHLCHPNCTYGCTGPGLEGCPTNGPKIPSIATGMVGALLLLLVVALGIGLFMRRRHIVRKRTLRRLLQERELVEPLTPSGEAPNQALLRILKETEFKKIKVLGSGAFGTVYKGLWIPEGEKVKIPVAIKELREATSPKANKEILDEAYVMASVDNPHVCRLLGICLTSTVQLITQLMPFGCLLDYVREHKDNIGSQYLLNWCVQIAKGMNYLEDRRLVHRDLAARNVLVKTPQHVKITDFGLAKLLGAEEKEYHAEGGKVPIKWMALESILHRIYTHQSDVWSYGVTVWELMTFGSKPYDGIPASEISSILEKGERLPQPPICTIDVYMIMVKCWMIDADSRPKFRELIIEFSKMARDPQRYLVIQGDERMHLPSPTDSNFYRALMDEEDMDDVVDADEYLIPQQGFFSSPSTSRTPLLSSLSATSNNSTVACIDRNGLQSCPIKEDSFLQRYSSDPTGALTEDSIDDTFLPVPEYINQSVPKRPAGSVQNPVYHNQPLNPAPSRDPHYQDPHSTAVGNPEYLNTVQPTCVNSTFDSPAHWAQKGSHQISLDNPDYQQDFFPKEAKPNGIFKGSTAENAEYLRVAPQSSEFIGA

EGFR (human) [4] = molecular target: EGFR (human) (UniProt P00533); conditions: a431; remark: listed apart in the source
EGFR (mouse) = EGFR (mouse) (UniProt P00533); conditions: nih3t3

Chain of EGFR (human) (P00533 whole entry, looked up): as above

Row | SMILES | IC50 (EGFR (human) [1]) [µM] | IC50 (EGFR (human) [2]) [µM] | IC50 (EGFR (human) [3]) [µM] | IC50 (EGFR) [µM] | IC50 (EGFR (human) [4]) | IC50 (EGFR (mouse)) [µM]
1 | CC1=CCC[C@]23O[C@H]2[C@@H](OC3=O)C2=C(C1)C(=O)C=CC2=O | 3.6 | 6.1 | 21.9 | 27 | 100 µM and > 100 µM | 
2 | CC1=CCC[C@]23O[C@H]2[C@@H](OC3=O)C2=C(C1)C(=O)C(O)=CC2=O | 0.1 | 0.8 | 1 | 5.5 |  | 0.02
3 | CC(=O)Oc1ccc(OC(C)=O)c2c1CC(C)=CCC[C@]13O[C@H]1[C@H]2OC3=O | 15.8 | 22.4 | 41.2 |  | 22 µM and 100 µM | 8.3
4 | COc1ccc(OC)c2c1CC(C)=CCC[C@]13O[C@H]1[C@H]2OC3=O | > 100 | > 100 | > 100 |  |  | 
5 | CC1=CCC[C@]23O[C@H]2[C@@H](OC3=O)c2c(O)ccc(O)c2C1 |  |  |  | 26 |  | 
